Results: patent publication US20180338980A1, “AROMATIC SULFONAMIDE DERIVATIVES” (BAYER PHARMA AKTIENGESELLSCHAFT, priority 2015, published 2018)

Columns and labels:
P2X4 [1] = molecular target: T1, P2X4 (Homo sapiens, UniProt Q99571); assay: Assay B: human P2X4 receptor cell line, mitochondrial photina luminescence (agonist Bz-ATP at EC50); format: cell-based; set-up: host or cells: HEK 293 (recombinant, constitutively expressing; with mitochondrial photina in Assay B); conditions: for Emax: read-out: human P2X4 Assay B avg Efficacy
T1 sequence (Q99571 1-388): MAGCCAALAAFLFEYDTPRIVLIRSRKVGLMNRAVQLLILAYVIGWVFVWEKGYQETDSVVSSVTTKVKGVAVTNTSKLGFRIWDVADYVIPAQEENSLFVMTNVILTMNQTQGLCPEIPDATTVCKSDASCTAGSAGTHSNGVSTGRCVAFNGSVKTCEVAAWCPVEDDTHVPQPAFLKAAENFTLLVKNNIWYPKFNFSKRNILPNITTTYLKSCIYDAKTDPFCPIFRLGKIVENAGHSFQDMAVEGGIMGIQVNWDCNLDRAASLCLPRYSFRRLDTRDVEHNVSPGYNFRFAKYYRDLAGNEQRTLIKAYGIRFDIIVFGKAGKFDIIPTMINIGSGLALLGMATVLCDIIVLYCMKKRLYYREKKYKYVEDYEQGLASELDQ
How it was run: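 Recombinant cell line constitutively expressing human P2X4 and mitochondrial photina photoprotein, reconstituted with coelenterazine. Receptor stimulated with Bz-ATP at EC50; calcium influx read immediately as luminescence.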

P2X4 [2] = molecular target: T1, P2X4; assay: Assay A: human P2X4 receptor cell line, FLIPR calcium assay (Fluo-8, agonist Bz-ATP at EC80); format: cell-based; set-up: host or cells: HEK 293 (recombinant, constitutively expressing; with mitochondrial photina in Assay B); conditions: for IC50: Bz-ATP at EC80, average values; for Emax: read-out: human P2X4 Assay A avg Efficacy
How it was run: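 HEK cells expressing human P2X4 (20,000/well, plated ~20 h earlier) loaded 30 min with 5 μM Fluo-8 in HBSS/HEPES buffer with 1.8 mM CaCl2, 1 mM MgCl2, 2 mM probenecid, pH 7.4. Antagonist preincubated 30 min at room temperature (0.5% DMSO), then Bz-ATP at EC80. Peak fluorescence over 120 s, normalized to DMSO; triplicate IC50 and Hill fits.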

[3] = HEK human P2X4 cell line, photina luminescence, agonist Bz-ATP at EC50, average
[4] = HEK human P2X4 cells, Fluo-8 FLIPR
[5] = percentage of maximal inhibition, HEK human P2X4 cells, Fluo-8 FLIPR

Row | SMILES | IC50 (P2X4 [1]; [3]) | Emax (P2X4 [1]; [3]) | IC50 (P2X4 [2]; [4]) | Emax (P2X4 [2]; [5]) | Emax (P2X4 [1]) | Emax (P2X4 [2])
1 | COCCN(C)C(=O)c1cccc(CC(=O)Nc2ccc(Oc3cccc(Cl)c3)c(S(N)(=O)=O)c2)c1 [Example 208, 3-(2-{[4-(3-Chlorophenoxy)-3-sulfamoylphenyl]amino}-2-oxoethyl)-N-(2-methoxyethyl)-N-methylbenzamide] | 552 nM | 67% | 38 nM | 87% |  | 
2 | NS(=O)(=O)c1cc(NC(=O)Cc2ccccc2Cl)ccc1OCC1CCCOC1 (centres unmarked) [Example 165, 2-(2-Chlorophenyl)-N-[3-sulfamoyl-4-(tetrahydro-2H-pyran-3-ylmethoxy)phenyl]acetamide] | 97 nM | 43% | 162 nM | 59% |  | 
3 | NS(=O)(=O)c1cc(NC(=O)Cc2ccccc2Cl)ccc1Oc1ccc(C2CCC(=O)N2)cc1 (centres unmarked) [Example 062, 2-(2-Chlorophenyl)-N-{4-[4-(5-oxopyrrolidin-2-yl)phenoxy]-3-sulfamoylphenyl}acetamide] | 455 nM | 70% | 560 nM | 95% |  | 
4 | NS(=O)(=O)c1cc(NC(=O)Cc2ccccc2Cl)ccc1Oc1cccc(N2CCCC2=O)c1 [Example 050, 2-(2-Chlorophenyl)-N-{4-[3-(2-oxopyrrolidin-1-yl)phenoxy]-3-sulfamoylphenyl}acetamide] | 112 nM | 87% | 5 nM | 94% |  | 
5 | C=C(C)c1cccc(Oc2ccc(NC(=O)Cc3ccccc3Cl)cc2S(N)(=O)=O)c1 [Example 177, 2-(2-Chlorophenyl)-N-{4-[3-(prop-1-en-2-yl)phenoxy]-3-sulfamoylphenyl}acetamide] | 970 nM | 69% | 265 nM | 80% |  | 
6 | C=C(C)c1ccccc1Oc1ccc(NC(=O)Cc2ccccc2Cl)cc1S(N)(=O)=O [Example 178, 2-(2-Chlorophenyl)-N-{4-[2-(prop-1-en-2-yl)phenoxy]-3-sulfamoylphenyl}acetamide] | 490 nM | 56% | 392 nM | 76% |  | 
7 | NS(=O)(=O)c1cc(NC(=O)Cc2ccccc2Cl)ccc1Oc1ccc(Cl)nc1 [Example 081, 2-(2-Chlorophenyl)-N-{4-[(6-chloropyridin-3-yl)oxy]-3-sulfamoylphenyl}acetamide] | > 16000 nM | 36% | 65 nM | 43% |  | 
8 | NS(=O)(=O)c1cc(NC(=O)Cc2ccccc2Cl)ccc1Oc1cccc(F)c1 [Example 011, 2-(2-Chlorophenyl)-N-[4-(3-fluorophenoxy)-3-sulfamoylphenyl]acetamide] | 43 nM | 67% | 41 nM | 85% |  | 
9 | NS(=O)(=O)c1cc(NC(=O)Cc2c(Cl)ccc(C3CC3)c2Cl)ccc1Oc1cccc(Cl)c1 [Example 129, N-[4-(3-Chlorophenoxy)-3-sulfamoylphenyl]-2-(2,6-dichloro-3-cyclopropylphenyl)acetamide] | 1300 nM | 69% | 1170 nM | 83% |  | 
10 | NS(=O)(=O)c1cc(NC(=O)Cc2ccccc2Cl)ccc1Oc1cccc(C(=O)NC2CC2)c1 [Example 037, 3-(4-{[(2-Chlorophenyl)acetyl]amino}-2-sulfamoylphenoxy)-N-cyclopropylbenzamide] | 188 nM | 56% | 63 nM | 70% |  | 
11 | Cc1ccc(Cl)c(CC(=O)Nc2ccc(Oc3cccc(Cl)c3)c(S(N)(=O)=O)c2)c1Cl [Example 128, N-[4-(3-Chlorophenoxy)-3-sulfamoylphenyl]-2-(2,6-dichloro-3-methylphenyl)acetamide] | 380 nM | 60% | 184 nM | 77% |  | 
12 | COc1ccc(Cl)c(CC(=O)Nc2ccc(Oc3cccc(Cl)c3)c(S(N)(=O)=O)c2)c1 [Example 102, 2-(2-Chloro-5-methoxyphenyl)-N-[4-(3-chlorophenoxy)-3-sulfamoylphenyl]acetamide] | 84 nM | 61% | 68 nM | 85% |  | 
13 | Cc1c(Br)ccc(Cl)c1CC(=O)Nc1ccc(Oc2cccc(Cl)c2)c(S(N)(=O)=O)c1 [Example 133, 2-(3-Bromo-6-chloro-2-methylphenyl)-N-[4-(3-chlorophenoxy)-3-sulfamoylphenyl]acetamide] | 4100 nM | 92% | 375 nM | 75% |  | 
14 | NS(=O)(=O)c1cc(NC(=O)Cc2ccccc2F)ccc1OCC1CCOCC1 [Example 279, 2-(2-Fluorophenyl)-N-[3-sulfamoyl-4-(tetrahydro-2H-pyran-4-ylmethoxy)phenyl]acetamide] |  |  |  |  | 85% | 61%
15 | NS(=O)(=O)c1cc(NC(=O)Cc2ccccc2Cl)ccc1Oc1cccc(C(=O)N2CCOCC2)c1 [Example 052, 2-(2-Chlorophenyl)-N-{4-[3-(morpholin-4-ylcarbonyl)phenoxy]-3-sulfamoylphenyl}acetamide] |  | 66% |  | 85% |  | 
16 | NS(=O)(=O)c1cc(NC(=O)Cc2ccccc2Cl)ccc1Oc1cccnc1 [Example 028, 2-(2-Chlorophenyl)-N-[4-(pyridin-3-yloxy)-3-sulfamoylphenyl]acetamide] |  | 79% |  | 75% |  | 
17 | NS(=O)(=O)c1cc(NC(=O)Cc2ccccc2Cl)ccc1Oc1cnc(Cl)nc1 [Example 079] |  | 40% |  | 54% |  | 
18 | Cc1ccc(Cl)c(CC(=O)Nc2ccc(Oc3cccc(Cl)c3)c(S(N)(=O)=O)c2)c1 [Example 097, 2-(2-Chloro-5-methylphenyl)-N-[4-(3-chlorophenoxy)-3-sulfamoylphenyl]acetamide] | 123 nM | 78% | 119 nM | 84% |  | 
19 | NS(=O)(=O)c1cc(NC(=O)Cc2c(Cl)ccc3c2CCO3)ccc1Oc1cccc(Cl)c1 [Example 278, 2-(5-Chloro-2,3-dihydro-1-benzofuran-4-yl)-N-[4-(3-chlorophenoxy)-3-sulfamoylphenyl]acetamide] | 180 nM | 65% | 139 nM | 82% |  | 
20 | CC(C)(O)c1cccc(Oc2ccc(NC(=O)Cc3ccccc3Cl)cc2S(N)(=O)=O)c1 [Example 274, 2-(2-Chlorophenyl)-N-{4-[3-(2-hydroxypropan-2-yl)phenoxy]-3-sulfamoylphenyl}acetamide] |  | 64% |  | 104% |  | 
21 | NS(=O)(=O)c1cc(NC(=O)Cc2ccccc2Cl)cnc1Oc1cccc(C(F)(F)F)c1 [Example 168, 2-(2-chlorophenyl)-N-{5-sulfamoyl-6-[3-(trifluoromethyl)phenoxy]pyridin-3-yl}acetamide] | 181 nM | 85% | 86 nM | 90% |  | 
22 | NS(=O)(=O)c1cc(NC(=O)Cc2ccccc2Cl)ccc1OCC1CCO1 (centres unmarked) [Example 158, 2-(2-Chlorophenyl)-N-[4-(oxetan-2-ylmethoxy)-3-sulfamoylphenyl]acetamide] |  | 75% |  | 91% |  | 
23 | NS(=O)(=O)c1cc(NC(=O)Cc2ccccc2Cl)ccc1Oc1ccccc1Cl [Example 065, N-[4-(2-Chlorophenoxy)-3-sulfamoylphenyl]-2-(2-chlorophenyl)acetamide] |  | 70% |  | 81% |  | 
24 | NS(=O)(=O)c1cc(NC(=O)Cc2ccccc2Cl)c(Cl)cc1Oc1cccc(Cl)c1 [Example 082, N-[2-chloro-4-(3-chlorophenoxy)-5-sulfamoylphenyl]-2-(2-chlorophenyl)acetamide] | > 50000 nM | 33% | > 25000 nM | 31% |  | 
25 | NS(=O)(=O)c1cc(NC(=O)Cc2c(F)ccc(F)c2Cl)ccc1Oc1cccc(Cl)c1 [Example 122, 2-(2-Chloro-3,6-difluorophenyl)-N-[4-(3-chlorophenoxy)-3-sulfamoylphenyl]acetamide] | 105 nM | 54% | 26 nM | 83% |  | 
26 | NS(=O)(=O)c1cc(NC(=O)Cc2ccc(C(F)(F)F)cc2)ccc1Oc1cccc(Cl)c1 [Example 116, N-[4-(3-Chlorophenoxy)-3-sulfamoylphenyl]-2-[4-(trifluoromethyl)phenyl]acetamide] |  | 72% |  | 87% |  | 
27 | Cc1cccc(Oc2ccc(NC(=O)Cc3ccccc3Cl)cc2S(N)(=O)=O)c1 [Example 018, 2-(2-Chlorophenyl)-N-[4-(3-methylphenoxy)-3-sulfamoylphenyl]acetamide] | 47 nM | 70% | 9 nM | 93% |  | 
